Where two headings read alike, the source gives them in different places.
Molecular target: IDH1 R132H (Homo sapiens, UniProt O75874, R132H)
Assay: Assay for IDH1 R132H inhibitors (NADPH/aKG, resazurin detection)
Type: biochemical
Outline: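 Read-out is resorufin fluorescence (Ex544/Em590) 5 min after adding a 30 μM resazurin detection mix. Before that, mutant enzyme (0.2 μg/ml in its mix) ran 50 min at room temperature with compound, 8 uM NADPH and 2 mM aKG (mix levels) in Tris pH 7.5 with NaCl, MgCl2, BSA.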

[1] = enzyme assay of Example 12, read-out: IDH1R132H IC50
[2] = Table 3, enzyme assay, 50 minutes at room temperature, read-out: IC50 (IDH1 R132H Inhibition)

Chain of IDH1 R132H (O75874 whole entry R132H): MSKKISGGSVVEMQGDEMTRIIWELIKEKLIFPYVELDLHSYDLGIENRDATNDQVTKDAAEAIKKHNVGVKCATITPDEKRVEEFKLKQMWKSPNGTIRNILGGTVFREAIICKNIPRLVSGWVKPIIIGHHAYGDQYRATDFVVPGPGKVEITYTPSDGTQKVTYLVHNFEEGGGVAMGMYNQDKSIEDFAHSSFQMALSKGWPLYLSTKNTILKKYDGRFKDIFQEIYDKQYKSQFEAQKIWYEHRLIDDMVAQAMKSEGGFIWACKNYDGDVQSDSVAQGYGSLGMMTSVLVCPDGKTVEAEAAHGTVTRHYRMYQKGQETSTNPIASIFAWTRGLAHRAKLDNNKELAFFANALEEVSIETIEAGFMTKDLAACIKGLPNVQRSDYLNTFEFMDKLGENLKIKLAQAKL

IC50 [1] [nM]	IC50 [2] [nM]	SMILES
< 500		COCCC(=O)N1CCN(c2nc(C3CC3)c(-c3ccc(S(C)(=O)=O)cc3)c(C)c2C#N)C[C@H]1C [Compound 319, (R)-6-cyclopropyl-5-(4-methanesulfonyl-phenyl)-2-[4-(3-methoxy-propionyl)-3-methyl-piperazin-1-yl]-4-methyl-nicotinonitrile]
	5000 to 15000	CC(C)c1cc(-c2cccc(F)c2)c(C#N)c(N2CCN(C(=O)c3c[nH]c4ccccc34)CC2)n1 [Compound 116, 2-(4-(1H-indole-3-carbonyl)piperazin-1-yl)-4-(3-fluorophenyl)-6-isopropylnicotinonitrile]
	1000 to 5000	CC(C)c1nc(N2CCN(C(=O)c3ccoc3)[C@H](C)C2)c(C#N)cc1-c1ccccc1 [Compound 150, (R)-2-(4-(furan-3-carbonyl)-3-methylpiperazin-1-yl)-6-isopropyl-5-phenylnicotinonitrile]
	1000 to 5000	CC(C)c1nc(N2CCN(C(=O)Cc3ccccc3)C(C)C2)c(C#N)cc1-c1ccccc1 (stereo in doubt) [Compound 145, (R)-6-isopropyl-2-(3-methyl-4-(2-phenylacetyl)piperazin-1-yl)-5-phenylnicotinonitrile]
< 500		COCCC(=O)N1CCN(c2nc(C3CC3)c(-c3ccc(C(=O)N4CCCC4)cc3)c(C)c2C#N)C[C@H]1C [Compound 333, (R)-6-cyclopropyl-2-[4-(3-methoxy-propionyl)-3-methyl-piperazin-1-yl]-4-methyl-5-[4-(pyrrolidine-1-carbonyl)-phenyl]-nicotinonitrile]
	1000 to 5000	CCOc1ccccc1-c1cc(C(C)C)nc(N2CCN(C(=O)c3ccoc3)[C@H](C)C2)c1C#N [Compound 163, (R)-4-(2-ethoxyphenyl)-2-(4-(furan-3-carbonyl)-3-methylpiperazin-1-yl)-6-isopropylnicotinonitrile]
	1000 to 5000	CC(C)c1nc(N2CCN(C(=O)Cc3ccccc3)C(C)C2)c(C#N)cc1-c1ccccc1 (centres unmarked) [Compound 139, 6-isopropyl-2-(3-methyl-4-(2-phenylacetyl)piperazin-1-yl)-5-phenylnicotinonitrile]
	5000 to 15000	CC(C)c1cc(-c2ccccc2)c(C#N)c(N2CCN(C(=O)c3ccco3)C(c3ccccc3)C2)n1 (centres unmarked) [Compound 155, 2-(4-(furan-2-carbonyl)-3-phenylpiperazin-1-yl)-6-isopropyl-4-phenylnicotinonitrile]
	≤ 1000	CC(C)c1nc(N2CCN(C(=O)c3ccoc3)[C@H](C)C2)c(C#N)cc1-c1ccc(C(F)(F)F)cc1 [Compound 187, (R)-2-(4-(furan-3-carbonyl)-3-methylpiperazin-1-yl)-6-isopropyl-5-(4-(trifluoromethyl)phenyl)nicotinonitrile]
	≤ 1000	COCCC(=O)N1CCN(c2nc(C3CC3)c(-c3ccc(F)cc3F)cc2C#N)C[C@H]1C [Compound 250, (R)-6-cyclopropyl-5-(2,4-difluorophenyl)-2-(4-(3-methoxypropanoyl)-3-methylpiperazin-1-yl)nicotinonitrile]
< 500		COCCC(=O)N1CCN(c2nc(C3CC3)c(-c3ccccc3COC)c(C)c2C#N)C[C@H]1C [Compound 348, (R)-6-cyclopropyl-5-(2-methoxymethyl-phenyl)-2-[4-(3-methoxy-propionyl)-3-methyl-piperazin-1-yl]-4-methyl-nicotinonitrile]
	≤ 1000	COCCC(=O)N1CCN(c2nc(C3CC3)c(-c3ccc(C)c(F)c3)c(C)c2C#N)C[C@H]1C [Compound 258, (R)-6-cyclopropyl-5-(3-fluoro-4-methylphenyl)-2-(4-(3-methoxypropanoyl)-3-methylpiperazin-1-yl)-4-methylnicotinonitrile]
< 500		COCCC(=O)N1CCN(c2nc(C3CC3)c(-c3ccccc3CO)c(C)c2C#N)C[C@H]1C [Compound 372, (R)-6-cyclopropyl-5-(2-hydroxymethyl-phenyl)-2-[4-(3-methoxy-propionyl)-3-methyl-piperazin-1-yl]-4-methyl-nicotinonitrile]
	1000 to 5000	CC(C)c1cc(-c2ccccc2)c(C#N)c(N2C[C@@H](C)N(C(=O)c3ccco3)[C@@H](C)C2)n1 [Compound 102, 2-((3S,5R)-4-(furan-2-carbonyl)-3,5-dimethylpiperazin-4-yl)-6-isopropyl-4-phenylnicotinonitrile]
	5000 to 15000	CC(C)c1nc(N2C[C@@H](C)N(C(=O)c3ccoc3)[C@@H](C)C2)c(C#N)cc1-c1ccccc1 [Compound 141, 2-((3S,5R)-4-(furan-3-carbonyl)-3,5-dimethylpiperazin-1-yl)-6-isopropyl-5-phenylnicotinonitrile]
	1000 to 5000	CC(C)c1nc(N2CCN(C(=O)Cc3ccccc3)CC2)c(C#N)cc1-c1ccccc1 [Compound 126, 6-isopropyl-5-phenyl-2-(4-(2-phenylacetyl)piperazin-1-yl)nicotinonitrile]
	5000 to 15000	CC(C)c1nc(N2CCN(C(=O)c3c[nH]c4ccccc34)CC2)c(C#N)cc1-c1ccccc1 [Compound 125, 2-(4-(1H-indole-3-carbonyl)piperazin-1-yl)-6-isopropyl-5-phenylnicotinonitrile]

Second part, the molecule before the results:

SMILES	IC50 [1] [nM]	IC50 [2] [nM]
Cc1c(C#N)c(N2CCN(C(=O)C3CC3)[C@H](C3CC3)C2)nc(C2CC2)c1-c1cn[nH]c1 [Compound 478, (R)-2-(4-(cyclopropanecarbonyl)-3-cyclopropylpiperazin-1-yl)-6-cyclopropyl-4-methyl-5-(1H-pyrazol-4-yl)nicotinonitrile]	500 to 1000	
COCCC(=O)N1CCN(c2nc(C3CC3)c(-c3ccc(C(=O)N(C)OC)cc3)cc2C#N)C[C@H]1C [Compound 656, (R)-4-(5-cyano-2-cyclopropyl-6-(4-(3-methoxypropanoyl)-3-methylpiperazin-1-yl)pyridin-3-yl)-N-methoxy-N-methylbenzamide]	500 to 1000	
CC(C)c1nc(N2CCN(C(=O)c3c[nH]c4ccccc34)CC2c2ccccc2)c(C#N)cc1-c1ccccc1 (centres unmarked) [Compound 168, 2-(4-(1H-indole-3-carbonyl)-2-phenylpiperazin-1-yl)-6-isopropyl-5-phenylnicotinonitrile]		1000 to 5000
CN(C)c1nccc(-c2cc(C#N)c(N3CCN(C(=O)C4CC4)[C@H](C4CC4)C3)nc2C2CC2)n1 [Compound 506, (R)-2-(4-(cyclopropanecarbonyl)-3-cyclopropylpiperazin-1-yl)-6-cyclopropyl-5-(2-(dimethylamino)pyrimidin-4-yl)nicotinonitrile]	500 to 1000	
COCCC(=O)N1CCN(c2nc(C3CC3)c(-c3ccc(F)c(Cl)c3)cc2C#N)C[C@H]1C [Compound 248, (R)-5-(3-chloro-4-fluorophenyl)-6-cyclopropyl-2-(4-(3-methoxypropanoyl)-3-methylpiperazin-1-yl)nicotinonitrile]		≤ 1000
C[C@@H]1CN(c2nc(C3CC3)c(-c3ccc4ncoc4c3)cc2C#N)CCN1C(=O)C1CC1 [Compound 467, (R)-5-(benzo[d]oxazol-6-yl)-2-(4-(cyclopropanecarbonyl)-3-methylpiperazin-1-yl)-6-cyclopropylnicotinonitrile]	500 to 1000	
N#Cc1cc(-c2cccc3nc(N)ncc23)c(C2CC2)nc1N1CCN(C(=O)C2CC2)[C@H](C2CC2)C1 [Compound 538, (R)-5-(2-aminoquinazolin-5-yl)-2-(4-(cyclopropanecarbonyl)-3-cyclopropylpiperazin-1-yl)-6-cyclopropylnicotinonitrile]	< 500	
CC(C)(C)OC(=O)Nc1cnnc(-c2cc(C#N)c(N3CCN(C(=O)CCO)[C@H](C4CC4)C3)nc2C2CC2)c1 [Compound 723, (R)-tert-butyl(6-(5-cyano-2-cyclopropyl-6-(3-cyclopropyl-4-(3-hydroxypropanoyl)piperazin-1-yl)pyridin-3-yl)pyridazin-4-yl)carbamate]	< 500	
COCCC(=O)N1CCN(c2nc(C3CC3)c(-c3ccc4[nH]cc(C(=O)C(F)(F)F)c4c3)cc2C#N)C[C@H]1C [Compound 317, (R)-6-cyclopropyl-2-(4-(3-methoxypropanoyl)-3-methylpiperazin-1-yl)-5-(3-(2,2,2-trifluoroacetyl)-1H-indol-5-yl)nicotinonitrile]	500 to 1000	
N#Cc1cc(-c2cncc(-c3nnn[nH]3)c2)c(C2CC2)nc1N1CCN(C(=O)C2CC2)[C@H](C2CC2)C1 [Compound 554, (R)-6-(4-(cyclopropanecarbonyl)-3-cyclopropylpiperazin-1-yl)-2-cyclopropyl-5′-(1H-tetrazol-5-yl)-[3,3′-bipyridine]-5-carbonitrile]	< 500	
COCCC(=O)N1CCN(c2nc(C3CC3)c(-c3ccc(OC(F)(F)F)cc3)c(C)c2C#N)C[C@H]1C [Compound 255, (R)-6-cyclopropyl-2-(4-(3-methoxypropanoyl)-3-methylpiperazin-1-yl)-4-methyl-5-(4-(trifluoromethoxy)-phenyl)nicotinonitrile]		≤ 1000
COCCC(=O)N1CCN(c2nc(C3CC3)c(-c3ccc4cn[nH]c4c3)cc2C#N)C[C@H]1C [Compound 385, (R)-6-cyclopropyl-5-(1H-indazol-6-yl)-2-(4-(3-methoxypropanoyl)-3-methylpiperazin-1-yl)nicotinonitrile]	500 to 1000	
COCCC(=O)N1CCN(c2nc(C3CC3)c(-c3ccnc(OS(=O)(=O)C(F)(F)F)c3)cc2C#N)C[C@H]1C [Compound 779, (R)-5-cyano-2-cyclopropyl-6-(4-(3-methoxypropanoyl)-3-methylpiperazin-1-yl)-[3,4′-bipyridin]-2′-yl trifluoromethanesulfonate]	1000 to 10000	
C=Cc1cc(-c2c(C3CC3)nc(N3CCN(C(=O)CCCCC)[C@H](C4CC4)C3)c(C#N)c2C)ccn1 [Compound 827, (R)-2-cyclopropyl-6-(3-cyclopropyl-4-hexanoylpiperazin-1-yl)-4-methyl-2′-vinyl-3,4′-bipyridine-5-carbonitrile]	< 500	
Cc1c(C#N)c(N2CCN(C(=O)CC(F)(F)F)[C@H](C3CC3)C2)nc(C2CC2)c1-c1ccc(F)cc1 [Compound 300, (R)-6-cyclopropyl-2-(3-cyclopropyl-4-(3,3,3-trifluoropropanoyl)piperazin-1-yl)-5-(4-fluorophenyl)-4-methylnicotinonitrile]	500 to 1000	

Source: US9856279B2 (AGIOS PHARMACEUTICALS, INC, priority 2011, dated 2018)
